# According to patent US5821046A, “RNA oligonucleotides that bind HIV tat protein” (RiboTargets Holdings PLC, priority 1990, dated 1998):
# Residue numbers refer to the chain shown, from its start.
# B1: 18+15 duplex 4-thioT-23 (dsRNA)
# RNA 1: AGCCAGATUUGAGCAGCU
# RNA 2: AGCUGCUCUCUGGCU
# modifications: 4-thio-2'-deoxythymidine at U23 (nt 8) [8 (strand 1, 4-thio-2'-deoxythymidine)]
# B2: 18+15 duplex 4-thioT-24 (dsRNA)
# RNA 1: AGCCAGAUTUGAGCAGCU
# RNA 2: AGCUGCUCUCUGGCU
# modifications: 4-thio-2'-deoxythymidine at U24 (nt 9) [9 (strand 1, 4-thio-2'-deoxythymidine)]
# B3: HIV-1 TAR RNA 59-mer (UUU bulge) (ssRNA)
# RNA: GGGUCUCUCUGGUUAGACCAGAUUUGAGCCUGGGAGCUCUCUGGCUAACUAGGGAACCC
# B4: HIV-1 TAR RNA (UCU bulge) (ssRNA)
# RNA: B3 RNA with U24C
# modifications: [24]
# B5: TAR G28 to C28; C37 to G37 (ssRNA)
# RNA: B3 RNA with G28C, C37G
# B6: TAR G to U (loop) (ssRNA)
# RNA: B3 RNA with G32U, G33U, G34U
# Experiments:
# HIV-1 tat protein [1] = assay type: binding; details: 32P-labeled RNA transcript, 0 to 600 ng tat
# Procedure: i) Gel retardation assays (FIG. 6) Method RNA transcripts were prepared by transcription with either T3 or T7 RNA polymerases of TAR regions residues +1 to +57, cloned between the HindIII and EcoRI sites of the Bluescribe M13+expression vector (Stratagene). RNA transcripts corresponding to HIV-1 TAR [SEQ ID NO: 1], SSA [SEQ ID NO: 3], SAA and SAS [SEQ ID NO: 5] were synthesized from clones linearized with EcoRI and transcribed with T3 RNA polymerase. RNA transcripts corresponding to the antisense HIV-1 TAR […], AAS , ASS [SEQ ID NO: 4], and ASA (not shown) sequences were prepared from the same plasmids linearized with HindIII and transcribed using T7 RNA polymerase. All other RNA molecules were synthesized using T3 RNA polymerase following EcoRI cleavage of the plasmid vector. The RNA products each carry 13 nucleotides of vector sequence at their 5' end and four nucleotides at their 3' ends. […] Transcription mixtures contained 1 ug linearized plasmid, 40 mM Tris-HCl pH 8.0, 10 mM MgCl 2, 2 mM Spermidine-HCl, 50 mM NaCl, 100 uM each ribonucleotide triphosphate, 40 uCi (alpha-^32 P) UTP (410 Ci/m mol) and 10 units of RNA polymerase in a final volume of 30 ul and were incubated at 37° C. for 30 minutes. After phenol extraction and precipitation from ethanol the RNA was purified from a 9% polyacrylamide denaturing gel. The specific activity of the RNA product was determined and appropriate amounts were used in binding assays. Binding reaction mixtures (1 5ul) contained 1 ng of uniformly labeled RNA probe, 0.5 ug calf thymus DNA, 0.2 ug yeast TRNA, 40 units RNAsin (Promega), 50 mM Tris-HCl and 20 mM KCl and 0 to 600 ng tat protein, prepared from E. coli beta-galactosidase-tat fusion proteins, as described previously (6). After incubation at either 30° C. or 4° C. for 10-20 minutes, the reaction mixtures were applied to a 6% non-denaturing polyacrylamide gel (Acrylamide: Bis, 40:0.5) in 3.3 mM sodium acetate, 6.7 mM Tris (adjusted to pH 7.9 with HCl). The gel buffer was recirculated during electrophoresis at 35 mA for approximately 2 hours at room temperature. Gels were dried and exposed to X-ray film at -80° C. using intensifying screens.
# HIV-1 tat protein [2] = assay: direct filter binding assay of tat to TAR RNA (saturation binding, Scatchard analysis); details: direct filter binding; HIV-1 TAR from saturation binding/Scatchard plot, mutants estimated from half-maximal binding; read-out: Kd (dissociation constant of tat binding)
# Procedure: The results shown graphically in FIG. 4 are from experiments in which binding reactions (500 ul) contained 40 nMolar^32 P uniformly radiolabelled TAR RNA at a specific activity of 100,000 Ci/mole; 0.5 ug calf thymus DNA; 0.2 ug yeast TRNA; 40 units RNAsin (Promega); 50mm Tris-HCl pH 7.9 and 20 mM KCl. Reaction mixtures were set up on ice and increasing amounts of HIV-1 tat protein were added and the reaction mixtures were filtered through prewashed nitrocellulose filters (Millipore 0.45 uM pore size). The filters were dried and counted by liquid scintillation counting. The fraction of radiolabeled RNA bound was plotted against HIV-1 tat concentration.
# Binding was measured by a filter-binding assay as described below under "Method", using monomeric tat protein prepared by CNBr cleavage of a human growth hormone-tat fusion protein expressed in E. coli. Reactions for saturation binding contained labeled TAR RNA [SEQ ID NO: 1] or antisense TAR RNA [SEQ ID NO: 6] at 10 nm and between 0 to 300 nM purified tat protein. Antisense TAR RNA was used as a control, since antisense TAR is unable to form stable complexes with tat in gel-retardation assays (Dingwall et al., 1989).
# The stoichiometry of the tat/TAR interaction was determined by varying the TAR RNA concentrations over a wide range, while keeping the tat protein concentration constant near the Kd. For this Scatchard analysis, the tat protein concentration was held constant at 40 nM and the RNA concentration was varied between 7nM and 320 nM. The total amount of labeled RNA was kept constant in the binding reactions, but the specific activity of the RNA was varied. […]
# Tat protein was prepared either from beta-galactosidase-tat fusion proteins (6) or from human growth-hormone-tat fusion proteins (85) using an improved method. In brief, inclusion body pellets containing the fusion protein were solubilized in 7M GdHCl, 50 mM Tris-HCl pH8.0, 2 mM EDTA, 2mM DTT and the fusion protein was purified to near homogeneity by ion-exchange chromatography on Q-Sepharose and S-Sepharose (Pharmacia) in buffers containing […], 50 mM Tris-HCl pH8.0, 2mM EDTA, 2mM DTT. The cysteine residues were protected by disulphide-exchange with 20 mM 2-hydroxyethyldisulphide (86), and the protein was cleaved by cyanogen bromide (6). The basic tat protein was then separated from the acidic human growth hormone peptides by ion-exchange chromatography on Q-Sepharose and S-Sepharose in 6M Urea. The protecting groups were then removed from the protein by addition of 10 mM DTT and the protein refolded by stepwise dialysis against 6 m Urea, 5M Urea,3M Urea, 1M Urea and 0M Urea in a buffer containing 50 mM Tris-HCl pH8.0, 100 uM DTT, 10 uM ZnCl2 Tat protein refolded in this manner elutes as a monomer from Superose 12 columns (Pharmacia) and migrates as a single band on polyacrylamide gels. Protein prepared by both methods behaved comparably in binding assays.
# A wide variety of parameters affecting the binding of tat protein to TAR RNA were studied and binding conditions were optimized. Binding of tat to TAR has a distinct pH optimum at pH 8.0, but good binding is observed between pH 7.5 and pH 8.5. Tat/TAR complexes are very sensitive to ionic strength. […] Addition of Zn^+2, Cd^+2, Ca^+2, Mg,^+2, Fe^+2 or Fe^+3 ions to the reaction mixtures […]. However, the binding reaction is sensitive to EDTA at greater than 0.1 mM EDTA. Complex formation is also somewhat temperature sensitive. Optimal binding is observed at 0°C. Between 15° C. and 30° C. there is a 30% reduction in complex formation. […]
# [3] = tested on: tat-dependent promoter activity of viral LTR carrying the TAR sequence; assay: trans-activation CAT assay, HeLa cells cotransfected with LTR-CAT test plasmid and tat expression plasmid; assay type: cell-based; details: HeLa cells cotransfected with tat plasmid
# Source text: If tat binding to TAR is necessary for trans-activation, then viral LTRs carrying TAR sequences with low affinities for tat should always have reduced tat-dependent promoter activity in vivo. Site-directed mutagenesis experiments on TAR have shown that trans-activation requires sequences in both the U-rich bulge (10, 11) and the loop sequence (12, 27, 28). These observations have now been extended, using TAR mutations with known affinities for tat in transfection experiments, the results of which are shown in FIG. 8. The experiments used either HeLa cells (FIG. 8a-d) or a constitutive producer of tat, HeLa/C63/tat cells (FIG. 8e-f).
# The TAR sequences depicted in FIG. 3 [SEQ ID NO: 1-11] were introduced into a test plasmid, pD5-3-3, which carries a LTR and approximately 300 bases of 5' flanking sequences derived from the infectious proviral clone NL4 (29). The bacterial chloramphenicol acetyltransferase (CAT) gene and SV40 intron and terminator sequence from pSV2-CAT (30) was inserted downstream of TAR by cloning into the HindIII site at +77. Trans-activation was measured either by cotransfection of HeLa cells with the test plasmids and the tat expression plasmid pC63-4-1 (6) (panels a-d in […]), or by transfection of the test plasmids alone into HeLa/C63/tat (clone 9) cells (panels e-h). […]
# HIV-1 tat protein [4] = assay: competition filter binding assay, mutant TAR transcripts against labelled HIV-1 TAR RNA (FIG. 7, Table 1); details: 20 nM TAR RNA, 40 nM tat protein; for IC50: read-out: D1/2 (concentration of competitor RNA that reduces binding of HIV-1 tat to HIV-1 TAR RNA to 50%)
# Procedure: Binding reactions (500 ul) were set up on ice and contained 80 pM ^32 P-labeled TAR RNA (17,600 dpm, 200 uCi/n mol) and unlabeled TAR RNA to give a final concentration of 20 nM, 0.5 ug calf thymus DNA, 0.2 ug yeast tRNA, 40 units RNAsin (Promega), 50 mM Tris HCl and 20 mM KCl. After addition of competitor RNA, binding was initiated by addition of HIV-1 tat protein to a final concentration of 400 ng/ml (40 nM). The binding reaction mixtures were then filtered under reduced pressure through pre-washed nitrocellulose filters (Millipore 0.45 uM pore size) and filters were dried and counted by liquid scintillation counting.
# The fraction of^32 P-labeled TAR RNA bound was plotted against the final concentration of competitor RNA. In these experiments reactions included 20 nM TAR and 40 nM tat protein and increasing amounts of unlabeled competitor RNA from 40 nm to 6 uM. […] In theory, 40 nM tat will bind 50% of the input TAR RNA (D1/2) when the total TAR RNA concentration is 56 nM.
# For competition experiments, binding reactions (500 ul) were set up on ice and contained 80 pM ^32 P-labeled TAR RNA (17,600 dpm, 200 uCi/n mol) and unlabeled TAR RNA to give a final concentration of 20 nM, 0.5 ug calf thymus DNA, 0.2 ug yeast TRNA, 40 units RNAsin (Promega), 50 mM Tris-HCl pH 7.9 and 20 mM KCl. After addition of 0 to 6 uM competitor RNA, binding was initiated by addition of HIV- 1 tat protein to a final concentration of 400 ng/mi (40 nM). The binding reaction mixtures were then filtered under reduced pressure through pre-washed nitrocellulose filters (Millipore 0.45 u pore size) and filters were dried and counted by liquid scintillation counting.
# KRel is the ratio of the D1/2 values for HIV-1 TAR and competitor RNA.
# HIV-1 Tat [5] = molecular target: T1, HIV-1 Tat (Human immunodeficiency virus 1, UniProt P04608 P04608:1-86); assay: competition; D1/2; unmodified 29-mer 60 nM; 29-mer probe; details: hairpin with U-rich bulge
# HIV-1 Tat [6] = molecular target: T1, HIV-1 Tat; assay: competition; D1/2; unmodified 18+15 duplex 65 nM; details: duplex with bulge
# HIV-1 Tat [7] = molecular target: T1, HIV-1 Tat; assay: filter; Scatchard 11.8 nM; 50 mM Tris-HCl, 20 mM KCl, on ice, calf thymus DNA and yeast tRNA present; details: label: 32P; stem-loop with 3-nt U-rich bulge
# HIV-1 Tat [8] = molecular target: T1, HIV-1 Tat; assay: filter; UCU bulge indistinguishable from UUU; details: stem-loop with bulge
# HIV-1 Tat [9] = molecular target: T1, HIV-1 Tat; assay: filter; D1/2 76 nM; compensatory mutation restores binding; details: stem-loop with bulge
# HIV-1 Tat [10] = molecular target: T1, HIV-1 Tat; assay: filter; D1/2 66 nM; complex in EMSA; details: stem-loop with bulge
molecule,measurement,setting,value
Antisense: anti-sense sequence to HIV-1 BRU TAR (antisense GGGUUCCCUAGUUAGCCAGAGAGCUCCCAGGCUCAAAUCUGGUCUAACCAGAGAGACCC; chemistry not given here) [reference compound],complex formation with tat in gel retardation assay,HIV-1 tat protein [1],No complexes were formed
same,Kd,HIV-1 tat protein [2],> 140 nM
G28 to C28 ; C37 to G37: pair of TAR point mutations expected to have a normal TAR stem/loop structure (GGGUCUCUCUGGUUAGACCAGAUUUGACCCUGGGAGGUCUCUGGCUAACUAGGGAACCC; chemistry not given here),trans-activation phenotype,[3],restored to wild-type levels
same,Kd,HIV-1 tat protein [2],24 nM
same,KRel (ratio of D1/2 values for HIV-1 TAR and competitor RNA),HIV-1 tat protein [4],0.84
same,IC50,HIV-1 tat protein [4],76 nM
"HIV-2 TAR: first stem-loop structure of HIV-2 ROD TAR RNA, bulge of two uridine residues (CUGCGGAGAGGCUGGCAGAUUGAGCCCUGGGAGGUUCUCUCCAGCACUAGCAG; RNA, backbone not given here) [reference compound]",complex formation with tat in gel retardation assay,HIV-1 tat protein [1],discrete complex formation
same,Kd,HIV-1 tat protein [2],30 nM
same,KRel (ratio of D1/2 values for HIV-1 TAR and competitor RNA),HIV-1 tat protein [4],0.40
same,IC50,HIV-1 tat protein [4],160 nM
"GCCAGAUUUGAGCCUGGGAGCUCUCUGGC (ssRNA, 2'-OMe uridine at U23 (nt 7) [7 (2'-OMe uridine, U23)]) [29-mer 2'-OMeU-23]",IC50,HIV-1 Tat [5],50 nM
"GCCAGAUUUGAGCCUGGGAGCUCUCUGGC (ssRNA, 2'-deoxyuridine at U23 (nt 7) [7 (2'-deoxyuridine, U23)]) [29-mer dU-23]",IC50,HIV-1 Tat [5],55 nM
B1,IC50,HIV-1 Tat [6],32 nM
B2,IC50,HIV-1 Tat [6],25 nM
B3,Kd,HIV-1 Tat [7],12 nM
B4,Kd,HIV-1 Tat [8],12 nM
B5,Kd,HIV-1 Tat [9],24 nM
B6,Kd,HIV-1 Tat [10],25 nM
